Where a SMILES comes first, the peptide text is derived from it.
Tested on: Limosilactobacillus reuteri GOLDGUT-LR99
Experiment: Carbon source utilization and oxidation experiment (AN Biolog micro-pore plate)
Type: cell-based
Conditions: substrate utilization by the strain; for Utilization (Y=OD590−OD750): 37° C. anaerobic culture for 24 hours
Procedure: The AN Biolog micro-pore plate was used for measuring the utilization and oxidation conditions of different carbon sources of Limosilactobacillus reuteri GOLDGUT-LR99, the AN microplate used nutrients and biochemical reagents, and the method included the following steps: 1 mL of Limosilactobacillus reuteri GOLDGUT-LR99 bacterial liquid of the strain to be detected at the end of logarithmic growth was pipetted and centrifuged, then the supernatant was removed, the cells was washed three times with the seed liquid and suspended with 1 mL of the seed liquid, 50 μL of the suspension was taken and diluted in 10 mL of the seed liquid, the diluent was subpacked in a Biolog plate (100 μL/pore) after mixing uniformly, and the Biolog plate with the diluent was placed in 37° C. for anaerobic culture for 24 hours. After the culture was finished, OD590 and OD750 were detected by using microplate reader, the numerical values were recorded, and the utilization conditions of carbohydrate, organic acid and other substances of the Limosilactobacillus reuteri GOLDGUT-LR99 were calculated, wherein the calculation method was as follows: Y=OD590−OD750;

| Compound | Utilization (Y=OD590−OD750) | utilization effect (in words) |
| --- | --- | --- |
| 3-Methyl-D-4-glucose | ++ (when Y > 0.1, it is shown that the strain was able to effectively utilize this substance, marked as++) |  |
| OC[C@H]1O[C@@H](O[C@@H]2[C@@H](CO)OC(O)(CO)[C@H]2O)[C@H](O)[C@@H](O)[C@H]1O (mixture of isomers) [Lactulose] | − (when Y < 0.05, it is shown that the strain was not able to utilize this substance, marked as −) |  |
| CC(O)C(=O)O (racemic) [D,L-Lactic acid] | ++ (when Y > 0.1, it is shown that the strain was able to effectively utilize this substance, marked as++) | effectively utilize |
| O=P(O)(O)OCC(O)CO (racemic) [D,L-α-Glycerophosphate] | − (when Y < 0.05, it is shown that the strain was not able to utilize this substance, marked as −) |  |
| Nc1ncnc2c1ncn2[C@H]1C[C@H](O)[C@@H](CO)O1 [2′-Deoxyadenosine] | − (when Y < 0.05, it is shown that the strain was not able to utilize this substance, marked as −) |  |
| N#C[C@H](O[C@@H]1O[C@H](CO[C@@H]2O[C@H](CO)[C@@H](O)[C@H](O)[C@H]2O)[C@@H](O)[C@H](O)[C@H]1O)c1ccccc1 [Amygdalin] | − (when Y < 0.05, it is shown that the strain was not able to utilize this substance, marked as −) |  |
| OC[C@H]1O[C@@H](Oc2ccc(O)cc2)[C@H](O)[C@@H](O)[C@@H]1O [Arbutin] | − (when Y < 0.05, it is shown that the strain was not able to utilize this substance, marked as −) |  |
| OC[C@@H](O)C(O)[C@H](O)CO [D-Arabinitol] | − (when Y < 0.05, it is shown that the strain was not able to utilize this substance, marked as −) |  |
| OC[C@H]1O[C@@H](O[C@H]2[C@H](O)[C@@H](O)[C@H](O)O[C@@H]2CO)[C@H](O)[C@@H](O)[C@@H]1O [D-Cellobiose] | ++ (when Y > 0.1, it is shown that the strain was able to effectively utilize this substance, marked as++) |  |
| O=C(CO)[C@@H](O)[C@H](O)[C@H](O)CO [D-Fructose] | ++ (when Y > 0.1, it is shown that the strain was able to effectively utilize this substance, marked as++) | better utilization effect |
| O=C[C@H](O)[C@@H](O)[C@@H](O)[C@H](O)CO [D-Galactose] | ++ (when Y > 0.1, it is shown that the strain was able to effectively utilize this substance, marked as++) |  |
| O=C[C@H](O)[C@@H](O)[C@@H](O)[C@H](O)C(=O)O [D-Galacturonic acid] | ++ (when Y > 0.1, it is shown that the strain was able to effectively utilize this substance, marked as++) |  |
| O=C(O)[C@@H](O)[C@@H](O)[C@H](O)[C@@H](O)C(=O)O [D-Glucarate] | ++ (when Y > 0.1, it is shown that the strain was able to effectively utilize this substance, marked as++) | effectively utilize |
| O=C1O[C@H](CO)[C@@H](O)[C@H](O)[C@H]1O [D-Gluconolactone] | ++ (when Y > 0.1, it is shown that the strain was able to effectively utilize this substance, marked as++) |  |
| O=C(O)[C@H]1OC(O)[C@H](O)[C@@H](O)[C@@H]1O (stereo partly drawn) [D-Glucoronate] | ++ (when Y > 0.1, it is shown that the strain was able to effectively utilize this substance, marked as++) |  |
| O=C(O)C[C@@H](O)C(=O)O [D-Malic acid] | − (when Y < 0.05, it is shown that the strain was not able to utilize this substance, marked as −) |  |
| OC[C@@H](O)[C@@H](O)[C@H](O)[C@H](O)CO [D-Mannitol] | + (when 0.1 > Y > 0.05, it is shown that the strain was able to better utilize this substance, marked as +) |  |
| OC[C@H]1O[C@@](CO)(O[C@H]2O[C@H](CO)[C@@H](O)[C@H](O)[C@H]2O)[C@@H](O[C@H]2O[C@H](CO)[C@@H](O)[C@H](O)[C@H]2O)[C@@H]1O [D-Melezitose] | − (when Y < 0.05, it is shown that the strain was not able to utilize this substance, marked as −) |  |
| OC[C@@H](O)[C@@H](O)[C@H](O)[C@@H](O)CO [D-Sorbitol] | ++ (when Y > 0.1, it is shown that the strain was able to effectively utilize this substance, marked as++) |  |
| OC[C@H]1O[C@H](O[C@H]2O[C@H](CO)[C@@H](O)[C@H](O)[C@H]2O)[C@H](O)[C@@H](O)[C@@H]1O [D-Trehalose] | − (when Y < 0.05, it is shown that the strain was not able to utilize this substance, marked as −) |  |
| CC(C)[C@@H](C)/C=C/[C@@H](C)[C@H]1CC[C@H]2C3=CC=C4C[C@@H](O)CC[C@]4(C)[C@H]3CC[C@]12C [Ergosterol] | ++ (when Y > 0.1, it is shown that the strain was able to effectively utilize this substance, marked as++) |  |
| CC(=O)O [Ethanoic acid] | − (when Y < 0.05, it is shown that the strain was not able to utilize this substance, marked as −) |  |
| O=CO [Formic acid] | − (when Y < 0.05, it is shown that the strain was not able to utilize this substance, marked as −) |  |

| Compound | Utilization (Y=OD590−OD750) | utilization effect (in words) |
| --- | --- | --- |
| O=C(O)/C=C/C(=O)O [Fumaric acid] | − (when Y < 0.05, it is shown that the strain was not able to utilize this substance, marked as −) |  |
| O=P(O)(O)O[C@H]1O[C@H](CO)[C@@H](O)[C@H](O)[C@H]1O [Glucose-1-phosphate] | + (when 0.1 > Y > 0.05, it is shown that the strain was able to better utilize this substance, marked as +) |  |
| O=C[C@H](O)[C@@H](O)[C@H](O)[C@H](O)COP(=O)(O)O [Glucose-6-phosphate] | ++ (when Y > 0.1, it is shown that the strain was able to effectively utilize this substance, marked as++) |  |
| OCC(O)CO [Glycerol] | − (when Y < 0.05, it is shown that the strain was not able to utilize this substance, marked as −) |  |
| NCC(=O)N[C@@H](CCC(N)=O)C(=O)O [Glycyl-L-glutamine] (H-Gly-Gln-OH) | − (when Y < 0.05, it is shown that the strain was not able to utilize this substance, marked as −) |  |
| CSCC[C@H](NC(=O)CN)C(=O)O [Glycyl-L-methionine] | − (when Y < 0.05, it is shown that the strain was not able to utilize this substance, marked as −) |  |
| NCC(=O)N1CCC[C@H]1C(=O)O [Glycylprolline] (H-Gly-Pro-OH) | − (when Y < 0.05, it is shown that the strain was not able to utilize this substance, marked as −) |  |
| O=CC(=O)O [Glyoxylic acid] | + (when 0.1 > Y > 0.05, it is shown that the strain was able to better utilize this substance, marked as +) |  |
| OC[C@H]1O[C@@H](n2cnc3c(O)ncnc32)[C@H](O)[C@@H]1O [Inosine] | − (when Y < 0.05, it is shown that the strain was not able to utilize this substance, marked as −) |  |
| C=C(CC(=O)O)C(=O)O [Itaconic acid] | − (when Y < 0.05, it is shown that the strain was not able to utilize this substance, marked as −) |  |
| C[C@H](N)C(=O)O [L-Alanine] | − (when Y < 0.05, it is shown that the strain was not able to utilize this substance, marked as −) |  |
| C[C@H](N)C(N)=O [L-Alanineamide] | ++ (when Y > 0.1, it is shown that the strain was able to effectively utilize this substance, marked as++) |  |
| C[C@H](N)C(=O)N[C@@H](Cc1c[nH]cn1)C(=O)O [L-Alanyl-histidine] (H-Ala-His-OH) | − (when Y < 0.05, it is shown that the strain was not able to utilize this substance, marked as −) |  |
| N[C@@H](CCC(=O)O)C(=O)O [L-Glutamic acid] | − (when Y < 0.05, it is shown that the strain was not able to utilize this substance, marked as −) |  |
| C[C@H](O)C(=O)O [L-Lactic acid] | ++ (when Y > 0.1, it is shown that the strain was able to effectively utilize this substance, marked as++) |  |
| O=C(O)C[C@H](O)C(=O)O [L-Malic acid] | − (when Y < 0.05, it is shown that the strain was not able to utilize this substance, marked as −) |  |
| CSCC[C@H](N)C(=O)O [L-Methionine] | − (when Y < 0.05, it is shown that the strain was not able to utilize this substance, marked as −) |  |
| N[C@@H](Cc1ccccc1)C(=O)O [L-Phenylalanine] | − (when Y < 0.05, it is shown that the strain was not able to utilize this substance, marked as −) |  |
| C[C@H](O)[C@H](O)[C@@H](O)[C@@H](O)C=O [L-Rhamnose] | ++ (when Y > 0.1, it is shown that the strain was able to effectively utilize this substance, marked as++) |  |
| N[C@@H](CO)C(=O)O [L-Serine] | − (when Y < 0.05, it is shown that the strain was not able to utilize this substance, marked as −) |  |
| C[C@@H](O)[C@H](N)C(=O)O [L-Threonine] | − (when Y < 0.05, it is shown that the strain was not able to utilize this substance, marked as −) |  |
| OCC1OC(OC2OC(CO)C(O)C(O)C2O)C(O)C(O)C1O [L-Trehalose] | ++ (when Y > 0.1, it is shown that the strain was able to effectively utilize this substance, marked as++) | better utilization effect |
| CC(C)[C@H](N)C(=O)O [L-Valine] | + (when 0.1 > Y > 0.05, it is shown that the strain was able to better utilize this substance, marked as +) | good utilization effect |

Source: US20250222044A1, “LIMOSILACTOBACILLUS REUTERI GOLDGUT-LR99 AND APPLICATION THEREOF” (priority 2024, published 2025)
